These results are taken from a melting point compilation (Tetko et al.; mined from patent text by program, amines drawn as free bases though some values may be those of a salt).

By melting point is commonly meant the temperature of the solid-liquid transition. The compound `COC(=O)c1ccc(NC(=O)[C@H](Cc2ccccc2)NC(=O)OC(C)(C)C)cc1` came in with a melting point of 173 to 175 °C.

With `CC1(C)OCCc2c1n(Cc1ccccc1)c1ccccc21`, the melting point was in the range of 132 to 134 °C. `CNc1ccc2c(c1)N(C)C(=O)N(c1ccc(Cl)cc1)S2(=O)=O` yielded a melting point of 207 to 209 °C.

For the compound `CC(C)(C)c1cc(Br)c2cc(C(C)(C)C)cc(Br)c2c1`, the melting point is 226 °C. For `COc1ccc([C@H]2C=CN(S(=O)(=O)c3ccc(OC)cc3)C(=O)[C@H]2CCC2C=CC=CC2=O)cc1` (stereo not given in full) the value was 159 to 161 °C; for `CC(C)OP(=O)(Cc1c(C2CCCCC2)cc(O)cc1C1CCCCC1)OC(C)C`, 143 °C. Compound `CCC(C)n1c(Nc2cc(C(F)(F)F)ccc2C(F)(F)F)nc(C(F)(F)F)c(Cl)c1=O` (stereo not given) registered a melting point of 133 to 135 °C. As for `CC(C)Oc1ccnc2[nH]cc(-c3ccnc(N)n3)c12`, the figure is over 210 °C; as for `Cc1nc(N2CCNCC2)nc(N2CCS(=O)(=O)CC2)c1[N+](=O)[O-]`, 208 to 211 °C.

For the compound `COc1ccccc1CNc1ccc2cc(Nc3nnc(C)o3)ccc2n1`, the melting point came out at 183 °C. On to `O=S1(=O)c2ccccc2-c2[nH]nc(-c3ccccc3)c21`, for which the melting point lay within 266 to 268 °C. `O=c1[nH]cc(C=CBr)c(=O)[nH]1` registered a melting point of over 320 °C.

Regarding `N=C(N)Nc1nc2ccccc2n1Cc1ccccc1`, the melting point came to 167 °C.

The compound `C=CCC(O)(C(=O)c1ccccc1)c1ccccc1` (stereo not given) displayed a melting point of 85 to 90 °C. For `CCCc1c(OCCCS(=O)(=O)c2nc3ccc(C(=O)O)cc3[nH]2)ccc(C(C)=O)c1O`, the melting point lay in the range of 212 to 215 °C. The compound `COc1ccc(CSc2nnc(-c3ccc4[nH]ncc4c3)o2)cc1C(F)(F)F` had a melting point of 136 to 137 °C. `Cc1ccc2sc(S(=O)(=O)c3ccc(=O)[nH]n3)cc2c1` displayed a melting point of 240 to 242 °C.

Compound `CCOC(=O)c1[nH]c2cc3[nH]c(C)c(C(=O)OC)c3c(C)c2c1C` showed a melting point of 247 to 250 °C.

As for `CCCc1c(OCc2ccc(C(=O)O)cc2)ccc(C(C)=O)c1O`, the melting point amounted to 188 °C. As to `CS(=O)(=O)N1CCN(CCC(CS(=O)(=O)c2ccc(Oc3ccc(OC(F)(F)F)cc3)cc2)N(O)C=O)CC1` (stereo not given), the melting point lay within 166 to 167 °C.

`COC(=O)NC(=Nc1cc(OS(=O)(=O)c2cccc(C(F)(F)F)c2)ccc1NC(N)=O)NC(=O)OC` gave a melting point of 131 °C. As for `COC(=O)c1nc(Br)cc(N)c1Cl`, the melting point is 194 to 195 °C. For `Cc1ccc2[nH]c(=O)sc2c1` the value was 70 to 71 °C. As for `COCCOCCOCCC1(CCOCCOCCOC)c2cc(C#Cc3ccc(C=O)s3)ccc2-c2ccc(C#Cc3ccc(C=O)s3)cc21`, the figure is 84 °C; as for `COc1cc(-c2ncnc(C(F)(F)F)c2C)c(F)cc1Cl`, 144 to 146 °C.

With `O=C1c2cccc3c(Cl)ccc(c23)C(=O)N1O`, the melting point lay in the range of 234 to 236 °C. Compound `CSc1nc(=O)n(-c2ccccc2F)c(=O)[nH]1` registered a melting point of 196 to 199 °C. `CCOCCN(C)c1ccc(-c2ccc3c(c2)C=C(C(=O)Nc2ccc(CN(C)C4CCOCC4)cc2)CCS3(=O)=O)cc1` displayed a melting point of 190 to 192 °C. Compound `CCCCNc1cc(C#N)cc(S(N)(=O)=O)c1Oc1ccccc1` yielded a melting point of 217 to 218 °C. On to `Oc1ccc2c(c1)OC(CNCCCc1c[nH]c3ccc(O)cc13)CO2` (stereo not given), for which the melting point is 140 to 144 °C.

`CC(C)(C)c1nn(-c2cc(F)c(C#N)cc2F)c(=O)o1`: the melting point stood at 137 °C. As to `Cc1c(NC(=O)CC(C)(C)C)cc2c(c1C)OC(C)(C)C2O` (stereo not given), the melting point lay within 184 to 185 °C. For the compound `Clc1ccc(C2=NCCc3c2ccc2ccccc32)cc1`, the melting point lay in the range of 138 to 140 °C. `CCCCCCn1c(CN2CCC[C@H]2C(=O)O)nc2cc(-c3ccccc3-c3nn[nH]n3)ccc21` yielded a melting point of 150 to 155 °C. The compound `O=C(NCc1cccnc1)c1ccc2n1Cc1ccccc1N(C(=O)/C=C/c1ccccc1)C2` yielded a melting point of 175 °C.
